Source: a flash point compilation (Sun et al. 2020)

| Structure (SMILES) | flash point [°C] |
| --- | --- |
| C=CCOCCC [allylpropylether] | -5 |
| OCc1ccccc1 [benzylalcohol] | 93 |
| CCCC(=O)OCc1ccccc1 [benzylbutanoate] | 107 |
| N#CCc1ccccc1 [benzylcyanide] | 101 |
| CCOCc1ccccc1 [benzylethylether] | 59 |
| ICc1ccccc1 [benzyliodide] | 97 |
| SCc1ccccc1 [benzylmercaptan] | 70 |
| C1CCC(C2CCCCC2)CC1 [bicyclohexyl] | 92 |
| BrC1CCCC1 [bromocyclopentane] | 35 |
| CCCC(=O)OC(=O)CCC [butanoicanhydride] | 82 |
| C=CC(=O)OCCCC [butylacrylate] | 37 |
| CCCCN [butylamine] | -7 |
| CCCCc1ccccc1 [butylbenzene] | 50 |
| CCCCOC(=O)c1ccccc1 [butylbenzoate] | 107 |
| CCCCOC(=O)CCC [butylbutanoate] | 49 |
| CCCCC1CCCCC1 [butylcyclohexane] | 48 |
| CCCCOCC [butylethylether] | -5 |
| C=C(C)C(=O)OCCCC [butylmethacrylate] | 49 |
| CSCCl [chloromethylmethylsulfide] | 17 |
| C[C@@H]1CCCC[C@@H]1C [cis-1,2-dimethylcyclohexane] | 12 |
| C[C@@H]1CCC[C@@H]1C [cis-1,2-dimethylcyclopentane] | -4 |
| C[C@@H]1CCC[C@H](C)C1 [cis-1,3-dimethylcyclohexane] | 6 |
| C/C=C\CC [cis-2-pentene] | -46 |
| CC/C=C\CC [cis-3-hexene] | -25 |
| CC/C=C\CCCC [cis-3-octene] | 14 |
| C/C=C\C(C)C [cis-4-methyl-2-pentene] | -33 |
| CC(C)c1ccccc1 [cumene] | 31 |
| O=C1CCC1 [cyclobutanone] | 10 |

| Structure (SMILES) | flash point [°C] |
| --- | --- |
| OC1CCCCCC1 [cycloheptanol] | 71 |
| SC1CCCCC1 [cyclohexanethiol] | 41 |
| C=CC(=O)OC1CCCCC1 [cyclohexylacrylate] | 68 |
| c1ccc(C2CCCCC2)cc1 [cyclohexylbenzene] | 98 |
| COC1CCCCC1 [cyclohexylmethylether] | 21 |
| C1CCCC1 [cyclopentane] | -37 |
| N#CC1CC1 [cyclopropanecarbonitrile] | 32 |
| CCNCC [diethylamine] | -23 |
| OCCOCCO [diethyleneglycol] | 124 |
| CCOC(=O)c1ccccc1C(=O)OCC [diethylphthalate] | 160 |
| CC(C)NC(C)C [diisopropylamine] | -7 |
| CSSC [dimethyldisulfide] | 10 |
| COC(=O)c1ccccc1C(=O)OC [dimethylphthalate] | 150 |
| C=CC(=O)OCC [ethylacrylate] | 8 |
| c1ccoc1 [furan] | -36 |
| CCCCCCC#N [heptanenitrile] | 58 |
| CCCCCC#N [hexanenitrile] | 47 |
| CCI [iodoethane] | -5 |
| C=CC(=C)C [isoprene] | -48 |
| Cc1cccc(C)c1 [m-xylene] | 25 |
| COC(C)=O [methylacetate] | -13 |
| C=CC(=O)OC [methylacrylate] | -3 |
| CC[N+](=O)[O-] [nitroethane] | 28 |
| CCCCCCCC#N [octanenitrile] | 74 |
| Cc1ccc(C)cc1 [p-xylene] | 25 |
| CCCCC#N [pentanenitrile] | 32 |
| CC(=O)C(C)(C)C [pinacolone] | 5 |

The remaining lines, values ahead:

| flash point [°C] | Structure (SMILES) |
| --- | --- |
| 28 | C1CCCCCCC1 [cyclooctane] |
| 88 | OC1CCCCCCC1 [cyclooctanol] |
| 28 | O=CC1CCCC1 [cyclopentanecarboxaldehyde] |
| 25 | SC1CCCC1 [cyclopentanethiol] |
| 26 | O=C1CCCC1 [cyclopentanone] |
| 12 | NC1CCCC1 [cyclopentylamine] |
| 62 | OCC1CCCC1 [cyclopentylmethanol] |
| 13 | CC(=O)C1CC1 [cyclopropylmethylketone] |
| 100 | CCCCCCCCCCOC=O [decylformate] |
| 24 | CCC(C)NC(C)CC (centres undefined) [di-sec-butylamine] |
| 15 | CCC(C)OC(C)CC (centres undefined) [di-sec-butylether] |
| 67 | CC(C)(C)SSC(C)(C)C [di-tert-butyldisulfide] |
| 23 | C=CCSCC=C [diallylsulfide] |
| 47 | CCCCNCCCC [dibutylamine] |
| 93 | CCCCSSCCCC [dibutyldisulfide] |
| 60 | CCCCSCCCC [dibutylsulfide] |
| 46 | CC(C)CCOCCC(C)C [diisopentylether] |
| 14 | COC(=O)OC [dimethylcarbonate] |
| -36 | CSC [dimethylsulfide] |
| 115 | c1ccc(Oc2ccccc2)cc1 [diphenylether] |
| 66 | CCCSSCCC [dipropyldisulfide] |
| 120 | CCCCCCCCCCCCOC(C)=O [dodecylacetate] |
| -4 | CCOC(C)=O [ethylacetate] |
| 18 | CCC1CCCCC1 [ethylcyclohexane] |
| -4 | CCC1CCCC1 [ethylcyclopentane] |

| flash point [°C] | Structure (SMILES) |
| --- | --- |
| 12 | CCOC(=O)CC [ethylpropanoate] |
| 57 | CCCSSCC [ethylpropyldisulfide] |
| 82 | CCC(=O)OCc1ccco1 [furfurylpropanoate] |
| 40 | CCCCCCC=O [heptanal] |
| 130 | CCCCCCC(=O)OC(=O)CCCCCC [heptanoicanhydride] |
| 95 | CCCCCCCc1ccccc1 [heptylbenzene] |
| 25 | CCCCCC=O [hexanal] |
| 55 | CCCCCCOC(C)=O [hexylacetate] |
| 44 | CCCCCCOC=O [hexylformate] |
| 74 | Ic1ccccc1 [iodobenzene] |
| 52 | IC1CCCC1 [iodocyclopentane] |
| 38 | CC(C)COC(=O)C(C)C [isobutyl2-methylpropanoate] |
| 18 | CC(=O)OCC(C)C [isobutylacetate] |
| 46 | CCCC(=O)OCC(C)C [isobutylbutanoate] |
| 41 | C=C(C)C(=O)OCC(C)C [isobutylmethacrylate] |
| -29 | COCC(C)C [isobutylmethylether] |
| -9 | C=COCC(C)C [isobutylvinylether] |
| 36 | CC(=O)OCCC(C)C [isopentylacetate] |
| 62 | CC(C)CCc1ccccc1 [isopentylbenzene] |
| 59 | CCCC(=O)OCCC(C)C [isopentylbutanoate] |
| 22 | CC(C)CCOC=O [isopentylformate] |
| -32 | CC(C)N [isopropylamine] |
| 24 | CCCC(=O)OC(C)C [isopropylbutanoate] |
| 35 | CC(C)C1CCCCC1 [isopropylcyclohexane] |
| 14 | CC(C)C1CCCC1 [isopropylcyclopentane] |

| flash point [°C] | Structure (SMILES) |
| --- | --- |
| -14 | CC(C)OC=O [isopropylformate] |
| 86 | Cc1cccc(O)c1 [m-cresol] |
| 52 | CCCc1cccc(C)c1 [m-propyltoluene] |
| 3 | COC(=O)C(C)C [methyl2-methylpropanoate] |
| 41 | CCCCCC(=O)OC [methylhexanoate] |
| 69 | CCCCCCCC(=O)OC [methyloctanoate] |
| -7 | CCC(C)(C)OC [methyltert-pentylether] |
| 31 | C1COCCN1 [morpholine] |
| 50 | CC(C)(C)Cc1ccccc1 [neopentylbenzene] |
| 81 | O=[N+]([O-])C1CCCCC1 [nitrocyclohexane] |
| 67 | O=[N+]([O-])C1CCCC1 [nitrocyclopentane] |
| 82 | CCCCCCCCC#N [nonanenitrile] |
| 91 | CCCCCCCCCOC(C)=O [nonylacetate] |
| 74 | CCCCCCCCCN [nonylamine] |
| 88 | CCCCCCCCCOC=O [nonylformate] |
| 55 | CCc1ccccc1CC [o-diethylbenzene] |
| 36 | CCc1ccc(C)cc1 [p-ethyltoluene] |
| 8 | CCCCC=O [pentanal] |
| 101 | CCCCC(=O)OC(=O)CCCC [pentanoicanhydride] |
| 39 | CCCCCOC(C)=O [pentylacetate] |
| 120 | CCCCCOC(=O)c1ccccc1 [pentylbenzoate] |
| 53 | CCCCCOC(=O)CC [pentylpropanoate] |
| 63 | CC(C)(C)C(=O)OC(=O)C(C)(C)C [pivalicanhydride] |
| -27 | CCC=O [propanal] |
